Values of other authors as cited in patent US20100166671A1, “ORGANIC COMPOUNDS” (priority 2006, published 2010).

Settings: single administration of a metered dose, aerosol formulation, treating asthma

C[N+]1(C)CCC(OC(=O)C(O)(c2ccccc2)C2CCCC2)C1.[Br-] (stereo not shown) [glycopyrrolate, 3-[(cyclopentyl-hydroxyphenylacetyl)oxy]-1,1-dimethylpyrrolidinium bromide]
duration of bronchodilation: up to 12 hours
